This is an account of results in patent US20230286973A1, “PROTEIN SECRETION INHIBITORS” (KEZAR LIFE SCIENCES, priority 2020, published 2023).

The test system of data set [1] is multiple myeloma cell line NCI-H929. Description: H929 Cell Viability Assay. As to conditions: Homo sapiens, NCI-H929, 48 h, NCI-H929 cells, Celltiter-Glo. The class given is cell-based, human. An outline of the steps:
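A 48-hour compound treatment of cells in 10% FBS RPMI medium was followed by luciferase-based viability quantification.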

Data set [2] relates to IL-2-FL/Gaussia Luciferase. Description: Dox Induced IL2-FL-Gluc Assay. The format is cell-based. As to conditions: for IC50: 24 hr Dox induction, 293FRT/TO cells, read-out: 24 hr Dox Inducible IL2FLGluc 293FRT/TO: Mean IC50; for 24 hr Dox Inducible IL2FLGluc 293FRT/TO: IL2/PD1: ratio of IL2FLGluc IC50 to PD1ssGluc IC50. A digest of the protocol:
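A hygromycin- and blasticidin-resistant 293 T-REx clone carrying inducible IL-2–Gaussia luciferase (full-length IL-2, residues 1-153) serves as the cell system. After overnight plating, the cells get test compounds together with doxycycline in DMSO/media and are incubated at 37° C, 5% CO2.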

In data set [3] the test system is multiple myeloma cell line U266B1. Description: U266 Cell Viability Assay. The format is cell-based, human. As to conditions: Homo sapiens, U-266, 48 h, U266B1 cells, Celltiter-Glo. A digest of the protocol: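 After growth in serum-supplemented RPMI 1640, cells received serially diluted compound in DMSO/media and were kept 48 hours before a CellTiter-Glo luminescence readout.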
In general terms: In ATP-based viability assays light output follows the ATP content of the culture.

Data set [4] relates to HER3-ss+4aa/Gaussia Luciferase. Description: Dox-Induced Her3-ss-Gluc Assay. The class given is cell-based. As to conditions: 24 hr Dox induction; 293FRT/TO cells; read-out: 24 hr Dox Inducible Her3(ss + 4)Gluc 293FRT/TO: Mean IC50. An outline of the steps: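 Doxycycline-inducible HER3 signal sequence+4aa/Gaussia luciferase construct, stably integrated in Flp-In 293 T-REx cells; compound dilutions applied with doxycycline at 37° C., 5% CO2.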

The nature of data set [5]: Liver Microsome Stability Assay (rat). As to conditions: rat liver microsomes, with NADPH, 1.0 uM compound. On the technique in general: Liver microsomes are a subcellular fraction often used to study metabolism.
Protocol: (§1) Stability of a compound was assessed in the presence of liver microsomes from various sources—mouse, rat, monkey and human liver microsomes. 1.0 uM compound, 0.4% DMSO in 0.1 M Potassium Phosphate with 1.0 mg/mL liver microsomes, were incubated at 37° C. with or without 1 mM NADPH. The samples were quenched at 0, and 30 minutes.
A short description of data set [6]: Liver Microsome Stability Assay (mouse). As to conditions: mouse liver microsomes, with NADPH, 1.0 uM compound.
Protocol: as §1
Data set [7] can be described thus: Liver Microsome Stability Assay (monkey). As to conditions: monkey liver microsomes, with NADPH, 1.0 uM compound.
Protocol: as §1
Data set [8] deals with PD1-ss+10aa/Gaussia Luciferase. Briefly: Dox-Induced PD1-ss-Gluc Assay. The class given is cell-based. As to conditions: 24 hr Dox induction; 293FRT/TO cells; read-out: 24 hr Dox Inducible PD1ssGluc 293FRT/TO: Mean IC50. An outline of the steps: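 Doxycycline-induced expression of a PD1-ss+10aa/Gaussia luciferase reporter is measured in stable Flp-In 293 T-REx cells. Compound dilutions containing doxycycline are added one day after plating and incubated at 37 °C, 5% CO2. Values for unassigned stereocentres refer to stereoisomer mixtures.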

Data set [9] relates to TNFα-FL/Gaussia Luciferase. Description: Dox Induced TNFα-FL-Gluc Assay. As to conditions: for IC50: 24 hr Dox induction, 293FRT/TO cells, read-out: 24 hr Dox Inducible TNFaFLGluc 293FRT/TO: Mean IC50; for 24 hr Dox Inducible TNFaFLGluc 293FRT/TO: TNF/PD1: ratio of TNFaFLGluc IC50 to PD1ssGluc IC50. The class given is cell-based. An outline of the steps:
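Hygromycin/blasticidin-selected Flp-In 293 T-REx cells, TNFα-FL/Gaussia luciferase fusion under T-REx control; overnight plating, then compound in DMSO/media with doxycycline at 37 °C, 5% CO2; stereo-undefined structures tested as mixtures.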

Data set [10] can be described thus: Liver Microsome Stability Assay (human). To be noted: human liver microsomes, with NADPH, 1.0 uM compound.
Protocol: as §1

One may read the EC50 as the concentration giving half of the maximal effect.

As to `O=C(Nc1nc([C@@H]2CCCN2c2ccc(C(F)(F)F)cc2)cs1)c1cccn1Cc1ccnc(F)c1` [Compound A142, (S)-1-((2-fluoropyridin-4-yl)methyl)-N-(4-(1-(4-(trifluoromethyl)phenyl)pyrrolidin-2-yl)thiazol-2-yl)-1H-pyrrole-2-carboxamide], the figures for the EC50 in data set [1] and in data set [3] were 16300 nM and more than 25000 nM, respectively. The IC50 in data set [2] amounted to 963 nM; in [4] it was 660 nM; in [8], 323 nM; in data set [9], 6870 nM. For the same compound, the “24 hr Dox Inducible IL2FLGluc 293FRT/TO: IL2/PD1” value in [2] is reported as 3. Also, in [5], the “Liver Microsome Stability (Multiple Species): Rat - % Remaining after 30 min w/NADPH” value is given as 59.4%. Besides, the “Liver Microsome Stability (Multiple Species): Mouse - % Remaining after 30 min w/NADPH” value in data set [6] was determined as 60.5%. In addition, in data set [7], the “Liver Microsome Stability (Multiple Species): Monkey - % Remaining after 30 min w/NADPH” value turned out to be 29.6%. For the same compound, the “24 hr Dox Inducible TNFaFLGluc 293FRT/TO: TNF/PD1” value in data set [9] was 21.3. Besides, the “Liver Microsome Stability (Multiple Species): Human - % Remaining after 30 min w/NADPH” value in [10] is 20.9%.

In the case of `CC(=O)N1CCC(Oc2ccc(N3CCC[C@@H]3c3csc(NC(=O)c4cccn4Cc4ccnc(F)c4)n3)c(Cl)c2)CC1` [Compound A143, (R)-N-(4-(1-(4-((1-acetylpiperidin-4-yl)oxy)-2-chlorophenyl)pyrrolidin-2-yl)thiazol-2-yl)-1-((2-fluoropyridin-4-yl)methyl)-1H-pyrrole-2-carboxamide], the EC50 in data set [1] came to 1010 nM; in data set [3], 11900 nM. In addition, the IC50 in data set [2] stood at 31.2 nM; in data set [4], 64.8 nM; in [8], 51.9 nM; in data set [9], 209 nM. Further, the “24 hr Dox Inducible IL2FLGluc 293FRT/TO: IL2/PD1” value in data set [2] was 0.6. For the same compound, the “Liver Microsome Stability (Multiple Species): Rat - % Remaining after 30 min w/NADPH” value in data set [5] came to 6.14%. Also, in data set [6], the “Liver Microsome Stability (Multiple Species): Mouse - % Remaining after 30 min w/NADPH” value is listed as 0.06%. In data set [7], the “Liver Microsome Stability (Multiple Species): Monkey - % Remaining after 30 min w/NADPH” value is given as 0.01%. The “24 hr Dox Inducible TNFaFLGluc 293FRT/TO: TNF/PD1” value in [9] is given as 4.03. The “Liver Microsome Stability (Multiple Species): Human - % Remaining after 30 min w/NADPH” value in data set [10] came out at 0.16%.

As for `COC(=O)Nc1ccc(N2CCC[C@@H]2c2csc(NC(=O)c3cccn3Cc3ccnc(F)c3)n2)cc1` [Compound A144, methyl (R)-(4-(2-(2-(1-((2-fluoropyridin-4-yl)methyl)-1H-pyrrole-2-carboxamido)thiazol-4-yl)pyrrolidin-1-yl)phenyl)carbamate], the values for the EC50 in [1] and in data set [3] were 15.9 nM and more than 25000 nM, respectively. Further, the IC50 in data set [2] was 1.33 nM; in [4], 0.81 nM; in data set [8] it was 0.36 nM; in data set [9], 5.9 nM. Further, the “24 hr Dox Inducible IL2FLGluc 293FRT/TO: IL2/PD1” value in data set [2] came out at 3.7. The “Liver Microsome Stability (Multiple Species): Rat - % Remaining after 30 min w/NADPH” value in data set [5] turned out to be 34%. Further, the “Liver Microsome Stability (Multiple Species): Mouse - % Remaining after 30 min w/NADPH” value in [6] is listed as 20.2%. Also, in data set [7], the “Liver Microsome Stability (Multiple Species): Monkey - % Remaining after 30 min w/NADPH” value came to 10.7%. Further, the “24 hr Dox Inducible TNFaFLGluc 293FRT/TO: TNF/PD1” value in data set [9] was determined as 16.3. For the same compound, the “Liver Microsome Stability (Multiple Species): Human - % Remaining after 30 min w/NADPH” value in data set [10] was 36.4%.

For the compound `CCOC(=O)Nc1ccc(N2CCC[C@@H]2c2csc(NC(=O)c3cccn3Cc3ccnc(F)c3)n2)cc1` [Compound A145, ethyl (R)-(4-(2-(2-(1-((2-fluoropyridin-4-yl)methyl)-1H-pyrrole-2-carboxamido)thiazol-4-yl)pyrrolidin-1-yl)phenyl)carbamate], the EC50 in data set [1] was 13.5 nM; in data set [3] it was more than 25000 nM. The IC50 is 1.11 nM in [2], 0.83 nM in [4], 0.31 nM in data set [8] and 7.51 nM in data set [9]. Also, the “24 hr Dox Inducible IL2FLGluc 293FRT/TO: IL2/PD1” value in data set [2] amounted to 3.6. Moreover, the “Liver Microsome Stability (Multiple Species): Rat - % Remaining after 30 min w/NADPH” value in [5] came out at 46%. The “Liver Microsome Stability (Multiple Species): Mouse - % Remaining after 30 min w/NADPH” value in data set [6] is given as 25.1%. Also, in data set [7], the “Liver Microsome Stability (Multiple Species): Monkey - % Remaining after 30 min w/NADPH” value was determined as 18%. Besides, in data set [9], the “24 hr Dox Inducible TNFaFLGluc 293FRT/TO: TNF/PD1” value turned out to be 24. The “Liver Microsome Stability (Multiple Species): Human - % Remaining after 30 min w/NADPH” value in [10] was 41.5%.

Regarding `CC(C)OC(=O)Nc1ccc(N2CCC[C@@H]2c2csc(NC(=O)c3cccn3Cc3ccnc(F)c3)n2)cc1` [Compound A146, isopropyl (R)-(4-(2-(2-(1-((2-fluoropyridin-4-yl)methyl)-1H-pyrrole-2-carboxamido)thiazol-4-yl)pyrrolidin-1-yl)phenyl)carbamate], the EC50 is 39.3 nM in data set [1] and more than 25000 nM in [3]. Also, the IC50 was determined as 2.56 nM in [2], 2.47 nM in data set [4], 0.97 nM in data set [8] and 20.6 nM in data set [9]. Moreover, the “24 hr Dox Inducible IL2FLGluc 293FRT/TO: IL2/PD1” value in [2] is reported as 2.6. Moreover, the “Liver Microsome Stability (Multiple Species): Rat - % Remaining after 30 min w/NADPH” value in [5] is 54.1%. Besides, the “Liver Microsome Stability (Multiple Species): Mouse - % Remaining after 30 min w/NADPH” value in data set [6] is 34.8%. In addition, the “Liver Microsome Stability (Multiple Species): Monkey - % Remaining after 30 min w/NADPH” value in data set [7] came to 21.6%. For the same compound, the “24 hr Dox Inducible TNFaFLGluc 293FRT/TO: TNF/PD1” value in data set [9] is 21.1. Besides, the “Liver Microsome Stability (Multiple Species): Human - % Remaining after 30 min w/NADPH” value in data set [10] came out at 49.5%.

For the compound `CC(=O)N1CCC(Nc2ccc(N3CCC[C@@H]3c3csc(NC(=O)c4cccn4Cc4ccnc(F)c4)n3)cc2)CC1` [Compound A147, (R)-N-(4-(1-(4-((1-acetylpiperidin-4-yl)amino)phenyl)pyrrolidin-2-yl)thiazol-2-yl)-1-((2-fluoropyridin-4-yl)methyl)-1H-pyrrole-2-carboxamide], the results for the EC50 in data set [1] and in data set [3] were 469 nM and 3480 nM, respectively. Moreover, the IC50 in data set [2] amounted to 109 nM; in data set [4] it was 106 nM; in data set [8], 71.9 nM; in [9], 316 nM. Besides, the “24 hr Dox Inducible IL2FLGluc 293FRT/TO: IL2/PD1” value in data set [2] is on record as 1.5. Also, the “Liver Microsome Stability (Multiple Species): Rat - % Remaining after 30 min w/NADPH” value in [5] was found to be 2.95%. For the same compound, in [6], the “Liver Microsome Stability (Multiple Species): Mouse - % Remaining after 30 min w/NADPH” value is on record as 5.61%. Further, the “Liver Microsome Stability (Multiple Species): Monkey - % Remaining after 30 min w/NADPH” value in data set [7] stood at 0.94%. In addition, the “24 hr Dox Inducible TNFaFLGluc 293FRT/TO: TNF/PD1” value in data set [9] was 4.4. Also, the “Liver Microsome Stability (Multiple Species): Human - % Remaining after 30 min w/NADPH” value in [10] came out at 8.6%.

In the case of `CN(C)S(=O)(=O)N1CC(Oc2ccc(N3CCC[C@@H]3c3csc(NC(=O)c4cccn4Cc4ccnc(F)c4)n3)cc2)C1` [Compound A148, (R)-N-(4-(1-(4-((1-(N,N-dimethylsulfamoyl)azetidin-3-yl)oxy)phenyl)pyrrolidin-2-yl)thiazol-2-yl)-1-((2-fluoropyridin-4-yl)methyl)-1H-pyrrole-2-carboxamide], the EC50 in [1] came out at 1660 nM; in data set [3], 11100 nM. Further, the IC50 in data set [2] stood at 87.2 nM; in [4], 73 nM; in [8], 45.9 nM; in data set [9], 579 nM. In [2], the “24 hr Dox Inducible IL2FLGluc 293FRT/TO: IL2/PD1” value stood at 1.9. In data set [5], the “Liver Microsome Stability (Multiple Species): Rat - % Remaining after 30 min w/NADPH” value came out at 28.3%. The “Liver Microsome Stability (Multiple Species): Mouse - % Remaining after 30 min w/NADPH” value in [6] turned out to be 4.79%. Besides, the “Liver Microsome Stability (Multiple Species): Monkey - % Remaining after 30 min w/NADPH” value in data set [7] was 0.84%. Besides, in [9], the “24 hr Dox Inducible TNFaFLGluc 293FRT/TO: TNF/PD1” value was found to be 12.6. Further, the “Liver Microsome Stability (Multiple Species): Human - % Remaining after 30 min w/NADPH” value in data set [10] stood at 7.55%.
